Reference: patent US20160206631A1, “OXYSTEROLS THAT ACTIVATE LIVER X RECEPTOR SIGNALING AND INHIBIT HEDGEHOG SIGNALING” (THE REGENTS OF THE UNIVERSITY OF CALIFORNIA, priority 2010, published 2016)

Tests used:
Hedgehog signaling = test: CAPAN-1 conditioned-medium-induced Hh target gene expression (Ptch1, HHIP, Gli1) in C3H10T1/2 cells; type: cell-based; conditions: C3H10T1/2 cells treated with CAPAN-1 CM
Description: Next, cells were treated with DMEM containing 5% […] or CAPAN-1 CM in the presence or absence of TO, Oxy16, or Cyc. After 48 hours, RNA was extracted and analyzed by Q-RT-PCR for the expression of Hh target genes Ptch1, HHIP, and Gli1 and normalized to GAPDH expression.
As noted above, Hh signaling appears to play an important role in the initiation and progression of pancreatic cancer (26), and the inhibition of HE signaling using small molecule antagonists inhibits pancreatic cancer cells from growing in vitro and in vivo (50). […] Subsequently, Hh signaling in stromal cells provides a permissive milieu for tumor cells to grow. […] In this Example, we examine this possibility using an in vitro model system in which Hh signaling is induced in C3H10T1/2 embryonic fibroblasts by conditioned-medium (CM) from CAPAN-1 human pancreatic cancer cells.
In order to assess the functional activity of Hh proteins produced by CAPAN-1 cells, we examined the ability of CM to induce Hh target gene expression in C3H10T1/2 embryonic fibroblasts.

LXR [1] = test: ABCA1 (LXR target gene) expression by Q-RT-PCR in M2-10B4 bone marrow stromal cells; conditions: for fold induction at 2 µM: M210B4, 48 h, read-out: ABCA1 gene expression, Fold Induction ± SD; for LXR signaling activation: bone marrow stromal cells
Description: This was measured by the ability of these molecules to induce the expression of LXR-target genes, including ABCA1, in M2-10B4 bone marrow stromal cells (MSC) after 48 hours of treatment (Table 1).

[2] = tested on: L3.6p1 human pancreatic cancer cells; test: Clonogenic growth of L3.6p1 pancreatic cancer cells in methylcellulose; type: cell-based; conditions: 72 hours treatment, colonies counted after 10 days
Description: (§1) Following treatment cells were harvested by washing cells twice with phosphate buffered saline (PBS) followed by enzymatically detaching with trypsin/EDTA. Cells were collected then washed twice with PBS. Cells were counted then resuspended in 500 uL of media. The volume of cells required for 2,000 cells from the control group was removed from each group then mixed with methylcellulose (1.2%) containing 30% fetal bovine serum, 1% bovine serum albumin, 10^-4 M 2-mercaptoethanol, and 2 mM L-glutamine. Cells were plated in low-attachment 6 well plates (1 ml/well), each group being plated in triplicate. Following 10 days of incubation, tumor cell colonies consisting of >40 cells were counted using an inverted microscope. Results are presented as the percentage of colonies from each treatment group compared to the control group (Table 2).

REH human ALL cells = test: Clonogenic growth of REH ALL cells; type: cell-based
Description: as §1
A similar experiment to that shown above for pancreatic cancer cells was performed using the human ALL cells, REH (Table 3).

[3] = tested on: human NCI-H929 multiple myeloma cell line; test: Clonogenic growth of NCI-H929 multiple myeloma cells; type: cell-based; conditions: 1 μM, 96 hours, colonies after 10 days (FIG. 6)
Description: NCI-11929 multiple myeloma cells were treated for 96 hours with control vehicle or 1 μM of each compound as shown. Next, drugs were removed and cells were plated in methylcellulose. Clonogenic growth of colonies determined after 10 days. Data are reported as percentage of colony number normalized to control group.
In order to examine the effect of LXR activation on the clonogenic growth of multiple myeloma cells, the human NCI-H929 multiple myeloma cell line was used.

[4] = tested on: NCI-H929 multiple myeloma cancer stem cells; test: Percentage of cancer stem cells (CD138 negative, ALDH positive) in NCI-H929 cultures by flow cytometry; type: cell-based, human; conditions: 1 μM, 96 hours (FIGS. 7, 8)
Description: NCI-H929 multiple myeloma cells were treated for 96 hours with control vehicle or 1 μM of each compound as shown. Next, percentage of CD138negative cells in the same number of starting cells from each group was determined by flow cytometry.
NCI-H929 multiple myeloma cells were treated for 96 hours with control vehicle or 1 μM of each compound as shown. Next, percentage of ALDH+ cells in the same number of starting cells from each group was determined by flow cytometry.

[5] = tested on: human primary multiple myeloma cells derived from patients; test: Clonogenic growth of primary multiple myeloma cells from patients in methylcellulose; type: cell-based; conditions: 1 μM, 96 hours, CD34+ and CD138+ depleted bone marrow mononuclear cells
LXR [6] = test: LXR target gene expression by Q-RT-PCR in Saos-2 osteosarcoma cells; type: cell-based, human; conditions: Saos-2 cells (FIG. 2, 72 hours for TO)
From the text: Data from a representative experiment are reported as the Data from a representative experiment are reported as the mean of triplicate determinations±SD relative to the expression level of LXRα (p<0.001 for control vs. both concentrations of TO for ABCA1 and SREBP1c mRNA).
Culturing the cells in varying serum (FBS) concentrations from 1% to 10% had no effect on LXRs or LXR target gene expression levels at baseline.

[7] = tested on: U2OS human osteosarcoma cells; test: Anchorage-independent clonogenic growth of U2OS cells; type: cell-based; conditions: 1 μM, 72 hours, colonies after 10 days (FIG. 4)
Description: (§2) Next, cells were harvested and examined for clonogenic growth in non-adherent plates after 10 days of culturing. Data from a representative of two separate experiments are reported as the relative number of colonies formed by cells treated with LXR ligands relative to cells treated with control vehicle (% of control).
(§3) We examined whether LXR activation inhibits the clonogenic growth of human osteosarcoma cells using an anchorage-independent cell growth assay. Saos-2 and U2OS cells were seeded in standard tissue culture plates and treated for 72 hours with control vehicle or 1 μM of TO, 22R, or Oxy16. Following treatments with LXR ligands, the drugs were removed and the cells harvested and plated in methylcellulose media in non-adherent plates (Costar) and the cell colonies formed after 10 days were counted.

[8] = tested on: Saos-2 human osteosarcoma cells; test: Anchorage-independent clonogenic growth of Saos-2 cells; type: cell-based; conditions: Saos-2; 1 μM, 72 hours, colonies after 10 days (FIG. 4)
Description: as §2, §3

LXR [9] = test: LXR target gene expression in human pancreatic cancer cells
[10] = tested on: human pancreatic cancer cells; test: Clonogenic growth of human pancreatic cancer cells in vitro; type: cell-based

## CC(C)CC[C@H](O)[C@@H](C)[C@H]1CC[C@H]2[C@@H]3CC=C4C[C@@H](O)CC[C@]4(C)[C@H]3CC[C@]12C [22(S)-hydroxycholesterol]
Hedgehog signaling
  CM-induced Hh signaling: did not have similar inhibitory effects

## C[C@]12CC[C@H]3[C@@H](CC=C4C[C@@H](O)CC[C@@]43C)[C@@H]1CC[C@@H]2[C@@](C)(O)CCCc1ccccc1 [Oxy22]
LXR [1]
  fold induction at 2 µM: 2.2 ± 0.4
  LXR signaling activation: Activate LXR Signaling

## CC(C)CCC[C@](C)(O)C1CCC2C3CC=C4CC(=O)CC[C@]4(C)C3CC[C@@]21C (stereo partly drawn) [Oxy30, (10R,13S)-17-((S)-2-Hydroxy-6-methylheptan-2-yl)-10,13-dimethyl-4,7,8,9,10,11,12, 13,14,15,16,17-dodecahydro-1H-cyclopenta[a]phenanthren-3(2H)-one]
[2]; 5 μM
  Normalized Colony # (% of control): 39 % of control
  Raw Colony #: 96
[2]; 10 μM
  Normalized Colony # (% of control): 41 % of control
  Raw Colony #: 100
LXR [1]
  fold induction at 2 µM: 2.8 ± 0.8
  LXR signaling activation: Activate LXR Signaling

## CC(C)CCC[C@](C)(O)C1CCC2C3CCC4=CC(=O)CC[C@]4(C)C3CC[C@@]21C (stereo partly drawn) [Oxy31, (10R,13S)-17-((S)-2-Hydroxy-6-methylheptan-2-yl)-10,13-dimethyl-6,7,8,9,10,11,12, 13,14,15,16,17-dodecahydro-1H-cyclopenta[a]phenanthren-3(2H)-one]
LXR [1]
  fold induction at 2 µM: 2 ± 0.3
  LXR signaling activation: Activate LXR Signaling

## CC(C)CCC[C@](C)(O)C1CCC2C3CC=C4C[C@H](O)CC[C@]4(C)C3CC[C@@]21C (stereo partly drawn) [Oxy35, (3R,10R,13S)-17-((S)-2-Hydroxy-6-methylheptan-2-yl)-10,13-dimethyl-2,3,4,7,8,9, 10,11,12,13,14,15,16,17-tetradecahydro-1H-cyclopenta[a]phenanthren-3-ol]
LXR [1]
  fold induction at 2 µM: 4 ± 1.2
  LXR signaling activation: Activate LXR Signaling

## CC(C)CCC[C@](C)(O)C1CCC2C3CC=C4C=CCC[C@]4(C)C3CC[C@@]21C (stereo partly drawn) [Oxy37, (2S)-2-((10R,13S)-10,13-Dimethyl-2,7,8,9,10,11,12,13,14,15,16,17-dodecahydro-1H-cyclopenta[a]phenanthren-17-yl)-6-methylheptan-2-ol]
LXR [1]
  fold induction at 2 µM: 2 ± 0.1
  LXR signaling activation: Activate LXR Signaling

## C[C@]12CC[C@H]3[C@@H](CC=C4C[C@@H](O)CC[C@@]43C)[C@@H]1CC[C@@H]2[C@@](C)(O)CCc1cccnc1 [Oxy43, (3S,8S,9S,10R,13S,14S,17S)-17-((S)-2-Hydroxy-4-(yridine-3-yl)butan-2-yl)-10,13-dimethyl-2,3,4,7,8,940,11,12,13,14,15,16,17-tetradecahydro-1H-cyclopenta-[a]-phenanthren-3-ol]
LXR [1]
  fold induction at 2 µM: 2.5 ± 0.8
  LXR signaling activation: Activate LXR Signaling

## C[C@]12CC[C@H]3[C@@H](CC=C4C[C@@H](O)CC[C@@]43C)[C@@H]1CC[C@@H]2[C@@](C)(O)CCc1ccc(F)cc1 [Oxy45, (3S,8S,9S,10R,13S,14S,17S)-17-((S)-4-(4-Fluorophenyl)-2-hydroxybutan-2-yl)-10,13-dimethyl-2,3,4,7,8,9,10,11,12,13,14,15,16,17-tetradecahydro-1H-cyclopenta-M-phenanthren-3-ol]
REH human ALL cells; 0.1 μM
  Normalized Colony # (% of control): 43 % of control
  Raw Colony #: 40
REH human ALL cells; 0.5 μM
  Normalized Colony # (% of control): 0.5 % of control
  Raw Colony #: 0.5
LXR [1]
  fold induction at 2 µM: 3.5 ± 0.5
  LXR signaling activation: Activate LXR Signaling
[3]
  clonogenic growth: inhibited clonogenic growth
[4]
  percentage of cancer stem cells (CD138 negative and ALDH positive cells): significantly reduced
[5]; Specimen # 1
  colony formation (% of control): 46 % of control
[5]; Specimen # 2
  colony formation (% of control): 25 % of control

## C[C@]12CC[C@H]3[C@@H](CC=C4C[C@@H](O)CC[C@@]43C)[C@@H]1CC[C@@H]2[C@@](C)(O)CCc1ccc(Cl)cc1 [Oxy47, (3S,8S,9S,10R,13S,14S,17S)-17-((S)-4-(4-Chlorophenyl)-2-hydroxybutan-2-yl)-10,13-dimethyl-2,3,4,7,8,9,10,11,12,13,14,15,16,17-tetradecahydro-1H-cyclopenta-[a]-phenanthren-3-ol]
LXR [1]
  fold induction at 2 µM: 1.8 ± 0.5
  LXR signaling activation: Activate LXR Signaling

## CC(C)CCC[C@](C)(O)[C@H]1CC[C@H]2[C@@H]3CC=C4C[C@@H](O)CC[C@]4(C)[C@H]3CC[C@@]21C [Oxy 20S, 20(S)-hydroxycholesterol, reference compound]
LXR [6]
  expression of LXR target genes ABCA1 and SREBP1c: significant expression

## CC(C)CC[C@@H](O)[C@@H](C)[C@H]1CC[C@H]2[C@@H]3CC=C4C[C@@H](O)CC[C@]4(C)[C@H]3CC[C@]12C [Oxy 22R, 22R-hydroxycholesterol, reference compound]
[7]
  clonogenic growth: significant inhibition
Hedgehog signaling
  CM-induced Hh signaling: inhibited
REH human ALL cells; 0.1 μM
  Normalized Colony # (% of control): 36 % of control
  Raw Colony #: 33
REH human ALL cells; 0.5 μM
  Normalized Colony # (% of control): 2 % of control
  Raw Colony #: 2
[2]; 5 μM
  Normalized Colony # (% of control): 63 % of control
  Raw Colony #: 153
[2]; 10 μM
  Normalized Colony # (% of control): 59 % of control
  Raw Colony #: 142
LXR [6]
  expression of LXR target genes ABCA1 and SREBP1c: significant expression
[8]
  clonogenic growth: significant inhibition
LXR [9]
  expression of LXR target genes: induce the expression of LXR target genes
[10]
  clonogenic growth: significantly inhibit
